Patent publication US20230118497A1, “PYRAZOLE-CONTAINING POLYCYCLIC DERIVATIVE INHIBITOR, PREPARATION METHOD THEREFOR AND APPLICATION THEREOF” (Shanghai Hansoh Biomedical Co., Ltd., priority 2019, published 2023)

System: BALB/c mice
Test: Taste sensitivity assay in BALB/c mice (quinine solution intake)
Type: in vivo
Conditions: 30 mpk; for Solution consumption of single mouse, Quinine solution: 3 mmol/L quinine hydrochloride, 30 min; for Dysgeusia rate: quinine solution vs solvent groups (20% HP-B-CD)
Procedure: Test Example 9. Taste Sensitivity Assay in BALB/c Mice
In this assay, compounds with less toxic and side effects on animal taste were screened by quinine bitter solution experiment.
BALB/c mice, 6 to 8 weeks old, ♂, purchased from Shanghai SIPPR-BK Laboratory Animal Co., Ltd.
BALB/c mice were randomly grouped according to body weight, and were deprived of water 12 to 16 hours before administration with no fasting.
An appropriate amount of quinine monohydrochloride dihydrate was weighed and formulated into an aqueous solution quinine hydrochloride (concentration: 3 mmol/L) with ultrapure water for later use.
An appropriate amount of the test compound was weighed and formulated into the target concentration with the corresponding solvent according to the experimental design for later use.
Administration and fasting: On the day of the experiment, the animals were weighed and fasted, bedding was changed, and the compounds were administered according to the experimental design.
1. The corresponding clean mouse drinking bottle was rinsed 2 to 3 times with ultrapure water and the formulated 3 mmol/L aqueous solution of quinine hydrochloriderespectively. The bottle was filled and weighed, and the weight was recorded as Wi0.
2. According to the experimental design, a certain period after administration, the filled bottle was gently placed in the corresponding mouse cage, and the timing was started. After 30 min, the bottle was gently taken out and weighed, and the weight was recorded as Wi30.
3. Calculation of solution consumption of animals in each group: ΔWW(g)=[…]; calculation of solution consumption of single mouse: ΔpWW(g)=ΔWW/N, N is the number of animals in each group.
4. Dysgeusia rate=(ΔpWW of the group in which the drinking water was the aqueous solution of quinine hydrochlorideand the test compound was administered at the same time −ΔpWW of the group in which the drinking water was aqueous solution of quinine hydrochlorideand the solvent control was administered at the same time)/(ΔpWW of the group in which the drinking water was ultrapure water and the solvent control was administered at the same time −ΔpWW of the group in which the drinking water was aqueous solution of quinine hydrochloride and the solvent control was administered at the same time)×100%. Data processing was performed with software such as Excel.

SMILES	Solution consumption of single mouse, Quinine solution [g]	Dysgeusia rate [%]
O=C(Cn1c(=O)c2ccc(C(F)(F)F)nc2n2nc(Br)cc12)Nc1ccc(F)cn1 [Example 61-A, 2-(2-bromo-5-oxo-8-(trifluoromethyl)pyrazolo[1,5-a]pyrido[3,2-e]pyrimidin-4(5H)-yl)-N-(5-fluoropyridin-2-yl)acetamide]	0.048	−3.77
N#Cc1cc2n(CC(=O)Nc3ccc(F)cn3)c(=O)c3ccc(C(F)(F)F)nc3n2n1 [Example 68, 2-(2-Cyano-5-oxo-8-(trifluoromethyl)pyrazolo[1,5-a]pyrido[3,2-e]pyrimidin-4(5H)-yl)-N-(5-fluoropyridin-2-yl)acetamide]	0.056	−2.26
O=C(Cn1c(=O)c2ccc(C(F)(F)F)nc2n2nccc12)Nc1ccc(F)cn1 [Example 78, N-(5-Fluoropyridin-2-yl)-2-(5-oxo-8-(trifluoromethyl)pyrazolo[1,5-a]pyrido[3,2-e]pyrimidin-4(5H)-yl)acetamide]	0.016	−9.81
